Data from patent US20170051002A1, “Rebaudioside A Crystal And Its Preparation Method And Use” (Zhucheng Haotian Pharm Co., Ltd., priority 2014, published 2017).

What was measured:
[1] = large number of scientific experiments; cited from earlier work
[2] = storage stability at 25° C. RH 60% for 3 months (crystal form, HPLC purity); type: physicochemical; conditions: after standing for 3 months
Procedure: The maximum solubility of the sample obtained according to the above-mentioned examples is about 30 mg/mL, and the form remains unchanged when stored at 25° C. RH 60% for 3 months from the results of HPLC analysis (purity is detected by high performance liquid chromatography, and the liquid chromatographic column and liquid chromatography used are the same as those specified by JECFA in 2010).
Perparation of sample solution: Precisely 50-100 milligrams of rebaudioside A were weighed and placed in a 50 milliliter volumetric flask, and then a solution of water and acetonitrile in a ratio of 7:3 were added for dissolution to a scale of 50 milliliter. Detection step: 5 μl of a sample solution are injected under the following conditions. Chromatographic Column: A Capcell pak C18 MG II chromatographic column from the Shiseido company or a Luna 5μ C18(2) 100A chromatographic column from the Phenomenex company or a chromatographic column of equivalent specifications (length: 250 millimeters; inner diameter: 4.6 millimeters; packing particle size: 5 μm). Mobile Phase: a mixture of acetonitrile and a sodium phosphate buffer (specification: 10 mmol/L, pH value of 2.6) in a ratio of 32:68. […] Chromatographic Column temperature: detection patterns are recorded for about 30 minutes at 40° C. […]

[3] = dynamic vapor adsorption (DVS) hygroscopicity; type: physicochemical; conditions: conventional storage environment 40%-80% RH; 25° C.
Procedure: “Dynamic vapor adsorption (DVS)” is an instrument for measuring the hygroscopicity of a sample. Its measurement method is known in the field. For example, an instrument from Surface Measurement Systems, Ltd. may be used to collect data of humidity ranging from 5% to 95% at 25 degrees Celsius. The weight deviation under each humidity is no more than ±0.02% within 10 min. The rebaudioside A Form 7 of the present invention has particular stability, which is conducive to storage. […] In a preferred embodiment, the DVS isotherm of the resulting rebaudioside A crystal form 7 is substantially identical to FIG. 4. DVS: All dynamic vapour adsorption (DVS) experimental data of the present invention are measured by a DVS Intrinsic dynamic vapour sorption instrument from SMS, UK. Measurement conditions: Temperature: 25° C.; Relative humidity range: 5%-95%.

Row | purity change by HPLC compared to the starting material [2] | hygroscopicity in DVS patterns [3] | SMILES | toxicity and side effect [1]
1 | less than 0.5% | – | C=C1C[C@@]23CC[C@H]4[C@@](C)(CCC[C@@]4(C)C(=O)O[C@@H]4O[C@H](CO)[C@@H](O)[C@H](O)[C@H]4O)[C@@H]2CC[C@]1(O[C@@H]1O[C@H](CO)[C@@H](O)[C@H](O[C@@H]2O[C@H](CO)[C@@H](O)[C@H](O)[C@H]2O)[C@H]1O[C@@H]1O[C@H](CO)[C@@H](O)[C@H](O)[C@H]1O)C3 [Rebaudioside A] | without any toxicity and side effect
2 | – | little hygroscopicity | C=C1C[C@@]23CC[C@H]4[C@@](C)(CCC[C@@]4(C)C(=O)O[C@@H]4O[C@H](CO)[C@@H](O)[C@H](O)[C@H]4O)[C@@H]2CC[C@]1(O[C@@H]1O[C@H](CO)[C@@H](O)[C@H](O[C@@H]2O[C@H](CO)[C@@H](O)[C@H](O)[C@H]2O)[C@H]1O[C@@H]1O[C@H](CO)[C@@H](O)[C@H](O)[C@H]1O)C3 [rebaudioside A Form 7, rebaudioside A] | –
